The text below walks through data of the C3SDB collision cross section collection.

Values joined by “and” are separate entries in the source; they are usually repeats but may differ in a detail not shown here. Equal values may be shown once.

The conditions of this data set: instrument: TW, calibrated with polyalanine and drug standards.

For the compound `Cc1ccc(-c2cc(C(F)(F)F)nn2-c2ccc(S(N)(=O)=O)cc2)cc1` [CELECOXIB], the “collision cross section (N2)” value ([M+H]+) is recorded as 186.1 Å².

`CC1=C(C(=O)O)N2C(=O)[C@@H](NC(=O)[C@H](N)c3ccccc3)[C@H]2SC1` [CEPHALEXIN]: the “collision cross section (N2)” value ([M+H]+) turned out to be 178.5 Å².

Regarding `O=C(O)CCCc1ccc(N(CCCl)CCCl)cc1` [CHLORAMBUCIL], under “[M+H]+”, the “collision cross section (N2)” value was found to be 168.7 Å².

For `CN1C(=O)CCS(=O)(=O)C1c1ccc(Cl)cc1` (stereo not drawn) [CHLORMEZANONE], the “collision cross section (N2)” value ([M+H]+) was 158.2 Å².

As for `CC(=O)Oc1ccc(Cl)c2cccnc12` [CHLOROACETOXYQUINOLINE], for the setting “[M+H]+”, the “collision cross section (N2)” value was found to be 141.1 Å².

For the compound `CN(C)CCCN1c2ccccc2Sc2ccc(Cl)cc21` [CHLORPROMAZINE], the “collision cross section (N2)” value ([M+H]+) is on record as 169.8 Å².

As to `CC(C)CCCC(C)C1CCC2C3CCC4CC(=O)CCC4(C)C3CCC12C` (stereo not drawn) [CHOLESTAN-3-ONE], the “collision cross section (N2)” value ([M+H]+) turned out to be 187.2 Å².

For `COC(=O)CC[C@@H](C)[C@H]1CC[C@H]2[C@@H]3[C@H](O)C[C@@H]4C[C@H](O)CC[C@]4(C)[C@H]3C[C@H](O)[C@]12C` [CHOLIC ACID, METHYL ESTER], the “collision cross section (N2)” value ([M+Na]+) is 198.1 Å².

As to `O=c1cc(-c2ccccc2)oc2cc(O)cc(O)c12` [CHRYSIN], the “collision cross section (N2)” value ([M+H]+) was found to be 151.7 Å².

For `COC(=O)C[C@H]1C2(C)CC34OC5(C)O[C@@]6([C@H](OC)C(OC(=O)C(C)C)[C@]7(C)C(/C(=C(/OC)C(C)C)C(=O)O[C@H]7c7ccoc7)[C@@]6(O5)[C@H](OC)[C@@]3(OC)C2OC(C)=O)[C@]14C` (stereo partly drawn) [CHUKRASIN METHYL ETHER], the “collision cross section (N2)” value ([M+H-H2O]+) came out at 254.2 Å².

As for `CN=C(NC#N)NCCSCc1nc[nH]c1C` [CIMETIDINE], the “collision cross section (N2)” value ([M+H]+) was found to be 155.7 Å².

As for `C=C[C@H]1CN2CC[C@H]1C[C@@H]2[C@@H](O)c1ccnc2ccccc12` [CINCHONINE], the “collision cross section (N2)” value ([M+H]+) is given as 166.3 Å².

On to `O=C(O)c1cn(C2CC2)c2cc(N3CCNCC3)c(F)cc2c1=O` [CIPROFLOXACIN], for which the “collision cross section (N2)” value ([M+H]+) was 185.3 Å² and 173.3 Å².

`CN(C)CCCC1(c2ccc(F)cc2)OCc2cc(C#N)ccc21` (stereo not drawn) [CITALOPRAM]: the “collision cross section (N2)” value ([M+H]+) came out at 178.9 Å².

On to `CC1=C2C(=CO[C@H](C)[C@H]2C)C(=O)C(C(=O)O)=C1O` [CITRININ], for which the “collision cross section (N2)” value ([M+H]+) came to 150.2 Å².

Turning to `CC(C)(Oc1ccc(Cl)cc1)C(=O)O` [CLOFIBRIC ACID], the “collision cross section (N2)” value ([M+H]+) was 146.6 Å².

Take `C=C[C@@]1(C)CC(=O)[C@]2(O)[C@@]3(C)[C@@H](O)CCC(C)(C)[C@@H]3[C@H](O)[C@H](OC(C)=O)[C@@]2(C)O1` [COLFORSIN]: the “collision cross section (N2)” value ([M+Na]+) is 191.9 Å².

Turning to `COC(=O)[C@H]1[C@H]2C[C@H]3c4[nH]c5ccccc5c4CCN3C[C@@H]2CC[C@@H]1O` [CORYNANTHINE], the “collision cross section (N2)” value ([M+H]+) is given as 186 Å².

As for `C[C@H]1COC2=C1C(=O)C(=O)c1c2ccc2c1CCCC2(C)C` [CRYPTOTANSHINONE], the “collision cross section (N2)” value ([M+H]+) amounted to 168 Å².

With `COc1cc2c(cc1OC)Cc1cc(OC)c(OC)cc1Cc1cc(OC)c(OC)cc1C2` [CYCLOVERATRYLENE], under “[M+H]+”, the “collision cross section (N2)” value is listed as 213.9 Å².

For `CC1(C)C(C=C(Cl)Cl)C1C(=O)OC(C#N)c1cccc(Oc2ccccc2)c1` (stereo not drawn) [CYPERMETHRIN], where the note is “[M+Na]+”, the “collision cross section (N2)” value was 200.6 Å².

In the case of `CC1(C)C(=O)C=C[C@@]2(C)C1CC(=O)[C@]1(C)C2CC[C@@]2(C)[C@H](c3ccoc3)OC(=O)[C@H]3O[C@]321` (stereo partly drawn) [DEACETOXY-7-OXOGEDUNIN], the “collision cross section (N2)” value ([M+H]+) is given as 196.6 Å².

`Cc1c(O)c(=O)ccn1C` [DEFERIPRONE]: where the note is “[M+H]+”, the “collision cross section (N2)” value was 123.2 Å².

As for `CC(C)c1ccc2c(c1)CCC1C(C)(C(N)=O)CCCC21C` (stereo not drawn) [DEHYDROABIETAMIDE], the “collision cross section (N2)” value ([M+H]+) is recorded as 181.1 Å².

Consider `C[C@H](CCC(=O)O)[C@H]1CC[C@H]2[C@@H]3CC[C@@H]4C[C@H](O)CC[C@]4(C)[C@H]3C[C@H](O)[C@]12C` [DEOXYCHOLIC ACID], for which the “collision cross section (N2)” value ([M+Na]+) came out at 196.7 Å².

Take `COc1ccc2c(c1)OCC(Cc1ccc(OC)c(OC(C)=O)c1)C2=O` (stereo not drawn) [DEOXYSAPPANONE B 7,3'-DIMETHYL ETHER ACETATE]: the “collision cross section (N2)” value ([M+H]+) was 177.9 Å².

Consider `COc1ccc2c(c1)OCC(Cc1ccc(OC)c(OC)c1)C2=O` (stereo not drawn) [DEOXYSAPPANONE B TRIMETHYL ETHER], for which the “collision cross section (N2)” value ([M+H]+) stood at 176.6 Å².

Regarding `CC(C)(CO)[C@@H](O)C(=O)NCCCO` [DEXPANTHENOL], the “collision cross section (N2)” value ([M+H]+) is listed as 144.1 Å².

`CC(=O)Nc1ccc(OC(C)=O)cc1` [DIACETAMATE]: the “collision cross section (N2)” value ([M+H]+) is 143.1 Å².

For `CC(=O)Nc1c(I)c(NC(C)=O)c(I)c(C(=O)O)c1I` [DIATRIZOIC ACID], the “collision cross section (N2)” value ([M+H]+) is recorded as 176.3 Å².

Take `Oc1ccc(Cl)cc1Cc1cc(Cl)ccc1O` [DICHLOROPHENE]: the “collision cross section (N2)” value ([M+H]+) amounted to 147.4 Å².

As for `O=c1oc2ccccc2c(O)c1Cc1c(O)c2ccccc2oc1=O` [DICUMAROL], the “collision cross section (N2)” value ([M+H]+) is given as 182 Å².

As for `CCN(CC)C(=O)c1cccc(C)c1` [DIETHYLTOLUAMIDE], the “collision cross section (N2)” value ([M+H]+) is 143.2 Å².

In the case of `CC(=O)OCC(=O)[C@@]1(OC(C)=O)[C@@H](C)C[C@H]2[C@@H]3C[C@H](F)C4=CC(=O)C=C[C@]4(C)[C@@]3(F)[C@@H](O)C[C@@]21C` [DIFLORASONE DIACETATE], the “collision cross section (N2)” value ([M+H]+) is listed as 209.5 Å².

With `COc1cc(OC)c(-c2c(OC)cc(OC)cc2OC)c(OC)c1` [DIFUCOL HEXAMETHYL ETHER], the “collision cross section (N2)” value ([M+H]+) was 175.2 Å².

As for `C[C@]12CC[C@H](O)C[C@H]1CC[C@@H]1[C@@H]2C[C@@H](O)[C@]2(C)[C@@H](C3=CC(=O)OC3)CC[C@]12O` [DIGOXIGENIN], the “collision cross section (N2)” value ([M+H]+) is given as 195.1 Å².

Consider `C[C@H]1O[C@@H](O[C@H]2[C@@H](O)C[C@H](O[C@H]3[C@@H](O)C[C@H](O[C@H]4CC[C@@]5(C)[C@H](CC[C@@H]6[C@@H]5C[C@@H](O)[C@]5(C)[C@@H](C7=CC(=O)OC7)CC[C@]65O)C4)O[C@@H]3C)O[C@@H]2C)C[C@H](O)[C@@H]1O` [DIGOXIN], for which, under “[M+H]+”, the “collision cross section (N2)” value is 322.5 Å².

Regarding `CC(=O)Oc1cc2c(c(C)c1OC(C)=O)CC=C1[C@@]2(C)CC[C@@]2(C)C3C[C@](C)(C(=O)O)CC[C@]3(C)CC[C@]12C` (stereo partly drawn) [DIHYDROCELASTRYL DIACETATE], under “[M+Na]+”, the “collision cross section (N2)” value was 219.7 Å².

On to `COC(=O)[C@@H]1OC(=O)C2OC23[C@@]1(C)CCC1[C@@]2(C)CCC(=O)C(C)(C)C2C[C@@H](OC(C)=O)[C@]13C` (stereo partly drawn) [DIHYDROGEDUNIC ACID, METHYL ESTER], for which the “collision cross section (N2)” value ([M+Na]+) is reported as 216.6 Å².

Turning to `C[C@@H]1CC[C@@]2(OC1)O[C@H]1C[C@H]3[C@@H]4CC=C5C[C@@H](O)CC[C@]5(C)[C@H]4CC[C@]3(C)[C@H]1[C@@H]2C` [DIOSGENIN], the “collision cross section (N2)” value ([M+H]+) is recorded as 208.4 Å².

Consider `CC[C@H]1OC(=O)[C@H](C)[C@@H](O[C@H]2C[C@@](C)(OC)[C@@H](O)[C@H](C)O2)[C@H](C)[C@@H](O[C@@H]2O[C@H](C)C[C@H](N(C)C)[C@H]2O)[C@](C)(O)C[C@@H](C)[C@@H]2N[C@@H](COCCOC)O[C@H]([C@H]2C)[C@]1(C)O` [DIRITHROMYCIN], for which the “collision cross section (N2)” value ([M+H]+) came to 284.2 Å².

As to `O=c1[nH]c2ccccc2n1CCCN1CCC(n2c(=O)[nH]c3cc(Cl)ccc32)CC1` [DOMPERIDONE], the “collision cross section (N2)” value ([M+H]+) is listed as 201.8 Å².

Take `O=C(CCCN1CC=C(n2c(=O)[nH]c3ccccc32)CC1)c1ccc(F)cc1` [DROPERIDOL]: the “collision cross section (N2)” value ([M+H]+) was found to be 195 Å².

In the case of `CCOC(=O)COc1ccc2c(=O)cc(-c3ccccc3)oc2c1` [EFLOXATE], under “[M+H]+”, the “collision cross section (N2)” value was 177.4 Å².

As to `C=CCOC(Cn1ccnc1)c1ccc(Cl)cc1Cl` (stereo not drawn) [ENILCONAZOLE], the “collision cross section (N2)” value ([M+H]+) is recorded as 165.2 Å².

As to `Oc1ccc([C@H]2Oc3cc(O)cc(O)c3C[C@H]2O)cc1` [EPIAFZELECHIN (2R,3R)(-)], the “collision cross section (N2)” value ([M+H]+) was determined as 159.4 Å².

In the case of `COc1ccc([C@H]2Oc3cc(OC)cc(OC)c3C[C@H]2O)cc1` [EPIAFZELECHIN TRIMETHYL ETHER], the “collision cross section (N2)” value ([M+H]+) amounted to 170 Å².

In the case of `O=C(O[C@@H]1Cc2c(O)cc(O)cc2O[C@@H]1c1cc(O)c(O)c(O)c1)c1cc(O)c(O)c(O)c1` [EPIGALLOCATECHIN-3-MONOGALLATE], the “collision cross section (N2)” value ([M+H]+) is 206.1 Å².

Consider `Oc1cc(O)c2c(c1)O[C@H](c1cc(O)c(O)c(O)c1)[C@H](O)C2` [EPIGALLOCATECHIN], for which, under “[M+H]+”, the “collision cross section (N2)” value was 165.5 Å².

As for `CCc1cccc2c3c([nH]c12)C(CC)(CC(=O)O)OCC3` (stereo not drawn) [ETODOLAC], where the note is “[M+H]+”, the “collision cross section (N2)” value is 164.4 Å².

For `CC(=O)OC1CCC2(C)C3=C(CC[C@H]2C1(C)C)[C@@]1(C)CC[C@@H]([C@@H](C)CCC=C(C)C)[C@]1(C)CC3` (stereo partly drawn) [EUPHOL ACETATE], for the setting “[M+H]+”, the “collision cross section (N2)” value came out at 218 Å².

`O=C1[C@H](CC[C@H](O)c2ccc(F)cc2)[C@@H](c2ccc(O)cc2)N1c1ccc(F)cc1` [EZETIMIBE]: the “collision cross section (N2)” value ([M+Na]+) amounted to 213.6 Å².

In the case of `CC(C)c1c(CN(C)C(C)Cc2ccccc2)n(C)n(-c2ccccc2)c1=O` (stereo not drawn) [FAMPROFAZONE], for the setting “[M+H]+”, the “collision cross section (N2)” value was determined as 190.9 Å².

Regarding `COc1cc(/C=C/C(=O)O)ccc1O` [FERULIC ACID], the “collision cross section (N2)” value ([M+H]+) is recorded as 128.8 Å².

On to `CC(C)(C)NC(=O)[C@H]1CC[C@H]2[C@@H]3CC[C@H]4NC(=O)C=C[C@]4(C)[C@H]3CC[C@]12C` [FINASTERIDE], for which, for the setting “[M+H]+”, the “collision cross section (N2)” value is on record as 200 Å².

For `O=c1c(O)c(-c2ccc(O)c(O)c2)oc2cc(O)ccc12` [FISETIN], the “collision cross section (N2)” value ([M+H]+) is 160.7 Å².

On to `Nc1nc(F)nc2c1ncn2[C@@H]1O[C@H](COP(=O)(O)O)[C@@H](O)[C@@H]1O` [FLUDARABINE PHOSPHATE], for which the “collision cross section (N2)” value ([M+H]+) was determined as 168.8 Å².

In the case of `CC1(C)O[C@@H]2C[C@H]3[C@@H]4C[C@H](F)C5=CC(=O)C=C[C@]5(C)[C@H]4[C@@H](O)C[C@]3(C)[C@]2(C(=O)CO)O1` [FLUNISOLIDE], the “collision cross section (N2)” value ([M+H]+) worked out at 199.8 Å².
